Results taken from patent US4931391A, “Method for preservation of nitrile hydration activity” (Mitsubishi Rayon Kabushiki Kaisha, priority 1986, dated 1990).
Where two headings read alike, the source gives them in different places.

Experiments:
[1] = biological target: T1, (Rhodococcus erythropolis, UniProt P13448+P13449); assay: Preservation of nitrile hydration activity of cell extract, Brevibacterium CBS-717; type: biochemical; details: 48 h; Brevibacterium CBS-717 extract; 1 ml + 1 ml buffer pH 6.5 containing 10 g/l stabilizer; 2 days at 20° C.; read-out: % Residual Activity
T1 construct: whereby a cell extract was obtained; endogenous in cells; host or cells: Brevibacterium CBS-717, French press cell extract
Procedure: In each of the following experimental examples, 0.1 ml of an enzyme solution was charged into a beaker containing 9.9 ml of phosphate buffer and irradiated with a 100-W EYE LAMP (supplied by Toshiba, Japan) positioned at a distance of 50 cm for 30 minutes in a bath maintained at 10° C. to induce the enzyme activity to the fullest extent. The resulting solution was then added to 10 ml of M/20 phosphate buffer (pH 7.7) containing 5.0% by weight of acrylonitrile to cause reaction at 10° C. for 10 minutes. The nitrile hydration activity of the test enzyme solution was determined by measuring the quantity of acrylamide produced by gas chromatography, the capability of producing 1μ mole of acrylamide per ml of the enzyme solution per minute being designated as 1 unit (U). […]
(§1) The cell extract thus obtained was divided into two aliquots, 1 ml of one aliquot being mixed with 1 ml of M/10 phosphate buffer (pH 6.5) containing 10 g/l of ammonium isobutyrate, and 1 ml of the other aliquot being mixed with 1 ml of M/10 phosphate buffer (pH 6.5) as a comparison example. Both solutions were left standing for 2 days at 20° C., and the nitrile hydration activity levels were measured before and after each of the solutions were left standing to calculate % residual activity.

nitrilase [2] = details: 1 ml + 1 ml buffer pH 6.5 containing 10 g/l stabilizer, 2 days at 20° C.
Procedure: In each of the following experimental examples, 0.1 ml of an enzyme solution was charged into a beaker containing 9.9 ml of phosphate buffer and irradiated with a 100-W EYE LAMP (supplied by Toshiba, Japan) positioned at a distance of 50 cm for 30 minutes in a bath maintained at 10° C. to induce the enzyme activity to the fullest extent. The resulting solution was then added to 10 ml of M/20 phosphate buffer (pH 7.7) containing 5.0% by weight of acrylonitrile to cause reaction at 10° C. for 10 minutes. The nitrile hydration activity of the test enzyme solution was determined by measuring the quantity of acrylamide produced by gas chromatography, the capability of producing 1μ mole of acrylamide per ml of the enzyme solution per minute being designated as 1 unit (U).
Each aliquot of a suspension of cells of a genus as shown in Table 2 prepared as in Comparison Example 1 was subjected to French press treatment and centrifugation similarly as in Comparison Example 1, whereby a cell extract was obtained.
as §1

[3] = biological target: T2, (Rhodococcus erythropolis, UniProt P13448+P13449); assay: Preservation of nitrile hydration activity of cell extract (crude enzyme solution), stabilizer added before crushing cells; type: biochemical, Corynebacterium strain N-774(FERM P-4446); details: left standing 2 days at 20° C.; buffer containing 10 g/l stabilizer mixed 1:1, pH 6.5
T2 sequence (P13448 2-207 limits assumed): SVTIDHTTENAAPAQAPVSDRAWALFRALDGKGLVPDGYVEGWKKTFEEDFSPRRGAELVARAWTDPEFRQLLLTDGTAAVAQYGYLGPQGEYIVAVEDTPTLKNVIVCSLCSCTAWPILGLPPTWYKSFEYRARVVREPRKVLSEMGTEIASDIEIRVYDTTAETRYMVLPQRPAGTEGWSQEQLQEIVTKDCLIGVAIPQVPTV
T2 sequence (P13449 1-212): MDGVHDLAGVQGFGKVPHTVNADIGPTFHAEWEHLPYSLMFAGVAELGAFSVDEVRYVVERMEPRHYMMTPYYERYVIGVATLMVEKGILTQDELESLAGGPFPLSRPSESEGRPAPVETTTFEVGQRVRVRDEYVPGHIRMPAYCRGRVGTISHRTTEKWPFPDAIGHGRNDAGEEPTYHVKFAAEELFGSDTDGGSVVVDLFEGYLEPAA
Procedure: (§2) A culture medium comprising 10 g/l of glucose, 5 g/l of peptone, 3 g/l of yeast extract, and 3 g/l of malt extract was adjusted to a pH of 7.2, and 100 ml of the resulting culture medium was sterilized in a 500-ml Erlenmeyer flask.
(§3) After cooling, the sterilized culture medium was inoculated with 1 ml of a culture fluid obtained by precultivating strain N-774(FERM P-4446) of the genus Corynebacterium in the same culture medium as is described above for 2 days, and cultivation was carried out aerobically at 30° C. for 2 days.
(§4) Cells were separated from the culture fluid by centrifugation (3° C., 10,000 rpm, 20 minutes) and washed with a physiological saline. The washed cells were subjected to centrifugation under the same conditions and then suspended in a physiological saline to obtain a suspension of washed cells.
(§5) The residual nitrile hydration activity percent (in Table 1, as in all succeeding tables, abbreviated to % residual activity) was calculated on the basis of the data thus obtained.

nitrilase [4] = biological target: T3, nitrilase (Rhodococcus erythropolis, UniProt P13448+P13449); assay: as above; type: biochemical, Corynebacterium strain N-774(FERM P-4446)
T3 sequence (P13448 2-207 limits assumed): T2 sequence (P13448 2-207 limits assumed)
T3 sequence (P13449 1-212): T2 sequence (P13449 1-212)
Procedure: as §2, §3, §4, §5

In the case of CC(C)C(=O)O.N [ammonium isobutyrate], the activity at 5000 µg/mL [1] is reported as 89%, the “% Residual Activity” value (nitrilase [2]; Bacillus CBS-494 extract) is reported as 83% and the “% Residual Activity” value (nitrilase [2]; Bacteridium CBS-496 extract) is reported as 78%. The “% Residual Activity” value (nitrilase [2]; Micrococcus CBS-497 extract) was 91%, the “% Residual Activity” value (nitrilase [2]; Nocardia N-775 extract) was 93% and the “% Residual Activity” value [3] was 92%. The “Activity Before Being Left Standing” value (nitrilase [4]; cell suspension mixed 1:1 with M/10 phosphate buffer pH 6.5 containing 10 g/l stabilizer, then French press) was 1.3 × 10^3 U/ml and the “Activity After Being Left Standing” value (nitrilase [4]; same extract after 2 days at 20° C.) was 1.2 × 10^3 U/ml.
